Values after ≈ are worked out from the molar mass of the structure shown. Where two headings read alike, the source gives them in different places.
Experiments:
[1] = test system: MDRPA; format: cell-based, Pseudomonas aeruginosa
Procedure: (§1) We assessed the antibiofilm activity of the peptides by determining their minimum biofilm eradication concentration (MBEC) and minimum biofilm inhibition concentration (MBIC) against drug-resistant bacteria, including MDRPA and MRSA, as previously described. A 96-well plate containing a subculture of 1 × 10^6 CFU/200 μL of bacteria was incubated overnight at 37 °C with or without peptides to test for biofilm inhibition and eradication. The untreated culture served as the negative control, and LL-37 was used as the control peptide.

[2] = test system: MRSA; format: cell-based, Staphylococcus aureus
Procedure: as §1

[3] = test system: RAW 264.7 macrophage cells; assay: Cytotoxicity, MTT assay; format: cell-based, mouse; conditions: 4 µM peptide, RAW 264.7, 48 h, triplicate
Procedure: We conducted the MTT assay (3-(4,5-dimethylthiazol-2-yl)-2,5-diphenyltetrazolium bromide) dye reduction experiment against RAW 264.7 macrophage cells to evaluate the cytotoxicity of the peptides, following previously published methods. RAW 264.7 cells were cultured for 24 h in the presence of 5% CO2 at 37 °C after seeding them in 96-well plates (2 × 10^4 cells/well). Subsequently, the peptides were treated at increasing concentrations and allowed to interact with the cells for 48 h. Following the incubation period, 20 μL of MTT solution (5 mg/mL in PBS) was added to each well, and the plate was further incubated at 37 °C for 4 h. The absorbance was then measured at 550 nm using a microplate ELISA reader after dissolving the formazan crystals in dimethyl sulfoxide (DMSO). Treatment with 0.1% Triton X-100 served as a positive control for 100% cytotoxicity. Each experiment was performed in triplicate.

[4] = test system: four Gram-positive and four Gram-negative bacteria; format: cell-based; conditions: over the eight strains of Table 2
Procedure: (§2) Peptides were assessed for their antibacterial activity against four Gram-positive and four Gram-negative bacteria, including drug-resistant strains, in accordance with Clinical and Laboratory Standards Institute (CLSI) guidelines. The minimum inhibitory concentration (MIC) was determined using a microtiter broth dilution method. All bacterial strains were incubated overnight at 37 °C. Cultured bacteria were then diluted 10-fold in Muller–Hinton Broth (MHB) medium (Difco, Detroit, MI, USA) and incubated for 3 h to reach mid-log phase. Following the establishment of mid-log phase cultures, bacteria were inoculated into sterile 96-well plates containing serially diluted peptides. The MIC was defined as the lowest concentration of peptides that prevented observable turbidity after incubation of the plates at 37 °C for 18 to 24 h.

[5] = test system: S. epidermidis (KCTC 1917); format: cell-based, Staphylococcus epidermidis; conditions: CLSI broth dilution, MHB, 37 °C, 18 to 24 h
Procedure: as §2

[6] = test system: S. aureus; assay: SYTOX green uptake assay; format: cell-based, Staphylococcus aureus; conditions: negative control
Procedure: The SYTOX green experiment was utilized to assess the impact of peptides on bacterial membrane permeabilization. S. aureus cells in the mid-log phase (OD600 = 0.5) were washed three times in a buffer containing 20 mM glucose and 5 mM HEPES (pH 7.4). Subsequently, the bacterial cell suspensions were diluted in a buffer consisting of 5 mM HEPES, 100 mM KCl, and 20 mM glucose, at pH 7.4, to a concentration of 1 × 10^6 CFU/mL. After incubating for fifteen minutes in complete darkness, 0.5 μM SYTOX green was added to the bacterial suspensions. The Shimadzu fluorescence spectrophotometer RF-5300PC (Shimadzu Scientific Instruments, Kyoto, Japan) was employed to monitor SYTOX green fluorescence following the addition of peptides at a concentration of 2 × MIC. In the Shimadzu fluorescence spectrophotometer, the excitation and emission wavelengths were set at 485 nm and 520 nm, respectively.

[7] = test system: E. coli (KCTC 1682); assay: Outer membrane permeability (NPN uptake); format: cell-based, Escherichia coli; conditions: varying peptide concentrations; NPN fluorescence
Procedure: The fluorescent probe NPN (1-N-phenylnaphthylamine) was utilized to measure the outer membrane permeability of Gram-negative E. coli. Mid-log phase E. coli cells were diluted to an OD600 of 0.05 after being washed three times in a buffer containing 5 mM HEPES, 20 mM glucose, and 5 mM KCN at pH 7.4. A 1 mM stock solution of NPN was prepared by dissolving NPN in acetone. To achieve a final concentration of 10 µM, 30 μL of the stock solution was added to the bacterial suspension. […] Fluorescence was then measured over time after the peptides were added, with the concentration increasing until it reached a steady state. ONPG (o-nitrophenyl-β-[…]), a […] substrate used for cytoplasmic membrane β-galactosidase enzyme, was employed to assess the release of β-galactosidase from E. coli ML-35, aiming to determine the inner membrane permeability of peptides. A 1.5 mM solution of ONPG was added to a sample buffer consisting of 10 mM sodium phosphate and 100 mM NaCl at pH 7.4, which was used to suspend mid-log phase E. coli ML-35 bacteria to an OD600 of 0.5. […] The fluorescence of ONPG increases when it is hydrolyzed to form o-nitrophenol. The permeability of the inner membrane of E. coli ML-35 bacteria was assessed by the influx of ONPG, a substance that was then broken down into o-nitrophenol, forming a yellow product, by the presence of β-galactosidase in the cytoplasm.

[8] = 8 to 16 µM, sentence does not tell MRSA and MDRPA apart

In the case of `CC[C@H](C)[C@H](NC(=O)[C@H](CCCCN)NC(=O)[C@H](CCC(=O)O)NC(=O)[C@H](CCCCN)NC(=O)[C@H](CO)NC(=O)[C@H](CCCCN)NC(=O)[C@H](CCCNC(=N)N)NC(=O)[C@H](Cc1ccccc1)NC(=O)[C@H](Cc1ccccc1)NC(=O)[C@H](CC(=O)O)NC(=O)CNC(=O)[C@H](CC(C)C)NC(=O)[C@@H](N)CC(C)C)C(=O)NCC(=O)N[C@@H](CCCCN)C(=O)N[C@@H](CCC(=O)O)C(=O)N[C@@H](Cc1ccccc1)C(=O)N[C@@H](CCCCN)C(=O)N[C@@H](CCCNC(=N)N)C(=O)N[C@H](C(=O)N[C@H](C(=O)N[C@@H](CCC(N)=O)C(=O)N[C@@H](CCCNC(=N)N)C(=O)N[C@H](C(=O)N[C@@H](CCCCN)C(=O)N[C@@H](CC(=O)O)C(=O)N[C@@H](Cc1ccccc1)C(=O)N[C@@H](CC(C)C)C(=O)N[C@@H](CCCNC(=N)N)C(=O)N[C@@H](CC(N)=O)C(=O)N[C@@H](CC(C)C)C(=O)N[C@H](C(=O)N1CCC[C@H]1C(=O)N[C@@H](CCCNC(=N)N)C(=O)N[C@H](C(=O)N[C@@H](CCC(=O)O)C(=O)N[C@@H](CO)C(=O)O)[C@@H](C)O)C(C)C)[C@@H](C)CC)C(C)C)[C@@H](C)CC` [LL-37], the “inhibition of biofilm formation” value [1, 8] is reported as “approximately 50%” and the “inhibition of biofilm formation” value [2, 8] is reported as “approximately 50%”.
For `CC[C@H](C)[C@H](NC(=O)CN)C(=O)NCC(=O)N[C@@H](C)C(=O)N[C@H](C(=O)N[C@@H](CC(C)C)C(=O)N[C@@H](CCCCN)C(=O)N[C@H](C(=O)N[C@@H](CC(C)C)C(=O)N[C@H](C(=O)N[C@H](C(=O)NCC(=O)N[C@@H](CC(C)C)C(=O)N1CCC[C@H]1C(=O)N[C@@H](C)C(=O)N[C@@H](CC(C)C)C(=O)N[C@H](C(=O)N[C@@H](CO)C(=O)N[C@@H](Cc1c[nH]c2ccccc12)C(=O)N[C@H](C(=O)N[C@@H](CCCCN)C(=O)N[C@@H](CCCNC(=N)N)C(=O)N[C@@H](CCCCN)C(=O)N[C@@H](CCCNC(=N)N)C(=O)N[C@@H](CCC(N)=O)C(=O)N[C@@H](CCC(N)=O)C(N)=O)[C@@H](C)CC)[C@@H](C)CC)[C@@H](C)O)[C@@H](C)O)C(C)C)C(C)C` [Melittin], the cell survival rate [3] was “less than 10%”, the “GM, geometric mean of the MIC” value [4] was 10.5 µM and the “inhibition of biofilm formation” value ([1]; MDRPA, 8 µM peptide) was ~90%. For the same compound, the MIC [5] was 8 µM (≈ 22.8 µg/mL) and the “inhibition of biofilm formation” value ([2]; MRSA, 4 µM peptide) was ~90%.
For Buforin-2, the “effect on SYTOX green fluorescence intensity” value [6] was “did not affect fluorescence intensity” and the outer membrane permeability [7] was “No appreciable outer membrane permeability”.

From publication PMC11201590, “Enhancing Selective Antimicrobial and Antibiofilm Activities of Melittin through 6-Aminohexanoic Acid Substitution” (Biomolecules, 2024)
